According to patent publication US10670605B2, “Cysteine reactive probes and uses thereof” (The Scripps Research Institute, priority 2015, dated 2020):
Values belong to the compound of their own block, whether it stands above or below them.

Tests used:
Experiment in all cases: Competitive isoTOP-ABPP in situ (fragment-treated cells)
Type in all cases: cell-based
[1] = target: T1, cysteines in MDA-MB-231 and Ramos cells (Homo sapiens, UniProt O43175); details: 200 μM, insitu
T1 sequence (O43175 1-533): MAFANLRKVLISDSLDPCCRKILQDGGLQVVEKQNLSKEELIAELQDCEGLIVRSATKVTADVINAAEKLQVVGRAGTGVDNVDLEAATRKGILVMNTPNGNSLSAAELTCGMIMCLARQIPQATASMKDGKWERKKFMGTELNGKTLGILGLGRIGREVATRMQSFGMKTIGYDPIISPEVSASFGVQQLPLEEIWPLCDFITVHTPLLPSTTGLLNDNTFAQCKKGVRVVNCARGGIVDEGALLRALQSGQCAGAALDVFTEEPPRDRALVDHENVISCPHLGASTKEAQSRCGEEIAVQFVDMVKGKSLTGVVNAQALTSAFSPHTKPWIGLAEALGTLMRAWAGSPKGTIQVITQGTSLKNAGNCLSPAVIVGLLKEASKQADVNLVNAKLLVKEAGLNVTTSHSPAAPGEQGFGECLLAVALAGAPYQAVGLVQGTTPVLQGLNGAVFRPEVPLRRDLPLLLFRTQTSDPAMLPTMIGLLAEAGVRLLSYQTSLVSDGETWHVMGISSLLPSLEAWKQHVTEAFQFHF

[2] = target: T2, cysteines in MDA-MB-231 and Ramos cells (Homo sapiens, UniProt Q13158); details: 200 μM, insitu
T2 sequence (Q13158 1-208): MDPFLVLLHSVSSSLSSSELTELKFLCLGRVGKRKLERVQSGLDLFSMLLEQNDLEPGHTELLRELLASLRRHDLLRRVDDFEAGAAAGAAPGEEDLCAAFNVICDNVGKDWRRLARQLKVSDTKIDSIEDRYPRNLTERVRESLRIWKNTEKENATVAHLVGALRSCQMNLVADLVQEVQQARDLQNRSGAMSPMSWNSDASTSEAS

[3] = target: cysteines in MDA-MB-231 and Ramos cells (Homo sapiens, UniProt Q9BRJ7)
Sequence of cysteines in MDA-MB-231 and Ramos cells (Homo sapiens, UniProt Q9BRJ7) (Q9BRJ7 whole entry): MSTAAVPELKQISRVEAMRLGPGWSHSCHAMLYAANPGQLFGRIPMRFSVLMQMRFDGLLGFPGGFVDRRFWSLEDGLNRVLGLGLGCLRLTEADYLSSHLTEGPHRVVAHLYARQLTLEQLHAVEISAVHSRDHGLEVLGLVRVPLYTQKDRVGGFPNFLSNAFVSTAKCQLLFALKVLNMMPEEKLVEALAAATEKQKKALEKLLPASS

[4] = target: T3, cysteines in MDA-MB-231 and Ramos cells (Homo sapiens, UniProt Q9NP73)
T3 sequence (Q9NP73 1-1137): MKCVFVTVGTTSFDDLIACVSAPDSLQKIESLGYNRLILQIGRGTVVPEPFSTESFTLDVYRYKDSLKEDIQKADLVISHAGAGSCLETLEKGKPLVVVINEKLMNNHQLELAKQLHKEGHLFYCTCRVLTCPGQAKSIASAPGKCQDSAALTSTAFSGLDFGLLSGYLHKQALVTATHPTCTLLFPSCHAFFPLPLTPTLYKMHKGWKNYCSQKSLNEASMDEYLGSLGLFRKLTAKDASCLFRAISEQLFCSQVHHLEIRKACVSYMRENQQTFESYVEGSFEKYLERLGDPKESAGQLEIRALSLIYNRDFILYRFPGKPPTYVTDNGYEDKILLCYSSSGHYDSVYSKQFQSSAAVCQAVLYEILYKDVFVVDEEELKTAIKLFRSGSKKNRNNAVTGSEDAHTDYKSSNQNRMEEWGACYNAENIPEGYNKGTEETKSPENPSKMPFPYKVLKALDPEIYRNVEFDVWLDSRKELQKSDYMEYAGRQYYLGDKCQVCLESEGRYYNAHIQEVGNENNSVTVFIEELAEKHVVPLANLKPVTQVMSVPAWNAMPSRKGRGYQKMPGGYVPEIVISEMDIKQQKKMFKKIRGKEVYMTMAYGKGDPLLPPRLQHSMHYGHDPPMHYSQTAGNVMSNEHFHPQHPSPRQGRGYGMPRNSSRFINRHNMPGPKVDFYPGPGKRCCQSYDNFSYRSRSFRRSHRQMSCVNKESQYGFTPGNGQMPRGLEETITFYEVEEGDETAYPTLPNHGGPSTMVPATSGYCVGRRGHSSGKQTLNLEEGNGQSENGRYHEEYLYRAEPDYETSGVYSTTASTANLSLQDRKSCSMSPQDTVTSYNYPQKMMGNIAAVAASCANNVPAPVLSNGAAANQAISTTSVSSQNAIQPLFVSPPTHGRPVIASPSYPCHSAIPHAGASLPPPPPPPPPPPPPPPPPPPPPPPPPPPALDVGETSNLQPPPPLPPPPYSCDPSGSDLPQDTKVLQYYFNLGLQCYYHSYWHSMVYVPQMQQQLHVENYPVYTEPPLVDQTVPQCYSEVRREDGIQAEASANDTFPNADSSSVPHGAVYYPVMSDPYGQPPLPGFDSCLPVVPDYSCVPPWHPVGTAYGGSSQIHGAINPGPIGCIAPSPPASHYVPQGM

[5] = target: T4, cysteines in MDA-MB-231 and Ramos cells (Homo sapiens, UniProt Q9Y570)
T4 sequence (Q9Y570 1-386): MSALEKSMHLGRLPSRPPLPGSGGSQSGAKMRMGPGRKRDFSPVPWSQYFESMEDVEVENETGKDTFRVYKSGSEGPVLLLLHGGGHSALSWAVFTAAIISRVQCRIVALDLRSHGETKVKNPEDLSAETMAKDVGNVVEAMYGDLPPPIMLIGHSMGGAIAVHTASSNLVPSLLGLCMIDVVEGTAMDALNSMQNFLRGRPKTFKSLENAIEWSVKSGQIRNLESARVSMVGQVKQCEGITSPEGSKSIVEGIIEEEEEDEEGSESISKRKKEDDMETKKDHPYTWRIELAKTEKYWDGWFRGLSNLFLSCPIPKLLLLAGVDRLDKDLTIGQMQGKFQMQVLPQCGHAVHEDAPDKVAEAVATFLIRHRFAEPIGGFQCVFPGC

[6] = target: cysteines in MDA-MB-231 and Ramos cells (Homo sapiens, UniProt P07858)
[7] = target: T5, cysteines in MDA-MB-231 and Ramos cells (Homo sapiens, UniProt P35754)
T5 sequence (P35754 1-106): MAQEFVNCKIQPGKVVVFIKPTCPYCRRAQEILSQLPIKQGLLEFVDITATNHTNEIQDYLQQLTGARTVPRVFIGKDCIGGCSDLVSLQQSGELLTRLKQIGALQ

[8] = target: cysteines in MDA-MB-231 and Ramos cells (Homo sapiens, UniProt Q9Y3D2)
Sequence of cysteines in MDA-MB-231 and Ramos cells (Homo sapiens, UniProt Q9Y3D2) (Q9Y3D2 21-182): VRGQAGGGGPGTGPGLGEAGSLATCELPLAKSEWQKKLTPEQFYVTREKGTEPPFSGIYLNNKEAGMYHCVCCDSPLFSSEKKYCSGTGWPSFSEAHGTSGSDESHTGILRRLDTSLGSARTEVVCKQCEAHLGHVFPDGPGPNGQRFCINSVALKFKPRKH

SMILES: COc1ccc2c(c1)CCCN2C(=O)CCl [compound 2]
- isoTOP-ABPP reactivity O43175_C369 PHGDH [1]; 231: 20.0
- isoTOP-ABPP reactivity Q13158_C98 FADD [2]; 231: 20.0
- isoTOP-ABPP reactivity Q9BRJ7_C88 NUDT16L1 ([3]; 200 μM, insitu, 231): 20.0
- isoTOP-ABPP reactivity Q9NP73_C86 ALG13 ([4]; 200 μM, insitu, 231): 20.0
- isoTOP-ABPP reactivity Q9Y570_C381 PPME1 ([5]; 200 μM, insitu, 231): 12.6

SMILES: Cc1ccc(C=C(C#N)C(=O)NCCN2CCOCC2)cc1 [compound 41]
- isoTOP-ABPP ratio P07858_C211 ([6]; 200 μM, insitu, 231): 0.4
- isoTOP-ABPP ratio P35754_C23 ([7]; 200 μM, insitu, 231): 0.5
- isoTOP-ABPP ratio Q9NP73_C86 ([4]; 200 μM, insitu, 231): 0.5
- isoTOP-ABPP ratio Q9Y3D2_C105 ([8]; 200 μM, insitu, 231): 1.2
- isoTOP-ABPP ratio Q9Y570_C381 ([5]; 200 μM, insitu, 231): 0.2

SMILES: COc1ccccc1OCCNC(=O)CCl [compound 28]
- isoTOP-ABPP ratio P35754_C23 ([7]; 200 μM, insitu, 231): 1.4
- isoTOP-ABPP ratio Q9BRJ7_C88 ([3]; 200 μM, insitu, 231): 1.7

SMILES: C=CC(=O)Nc1cc(F)c(N2CCN(C(=O)OC(C)(C)C)CC2)c(F)c1 [compound 38]
- isoTOP-ABPP ratio P07858_C211 ([6]; 200 μM, insitu, 231): 1.8
- isoTOP-ABPP ratio P35754_C23 ([7]; 200 μM, insitu, 231): 0.9
- isoTOP-ABPP ratio Q13158_C98 [2]; 231: 1.5
- isoTOP-ABPP ratio Q9BRJ7_C88 ([3]; 200 μM, insitu, 231): 0.4
- isoTOP-ABPP ratio Q9NP73_C86 ([4]; 200 μM, insitu, 231): 1.3
- isoTOP-ABPP ratio Q9Y3D2_C105 ([8]; 200 μM, insitu, 231): 1.6

SMILES: COc1cc2c(cc1OC)CN(C(=O)CCl)CC2 [compound 8]
- isoTOP-ABPP reactivity Q9Y3D2_C105 MSRB2 ([8]; 200 μM, insitu, 231): 20.0

SMILES: C=CC(=O)N(Cc1cccnc1)c1cc(C(F)(F)F)cc(C(F)(F)F)c1 [compound 31]
- isoTOP-ABPP ratio O43175_C369 [1]; 231: 20.0
- isoTOP-ABPP ratio O43175_C369 ([1]; ramos): 20.0
- isoTOP-ABPP ratio P35754_C23 ([7]; 200 μM, insitu, 231): 0.6
- isoTOP-ABPP ratio P35754_C23 ([7]; 200 μM, insitu, ramos): 1.1
- isoTOP-ABPP ratio Q13158_C98 [2]; 231: 0.9
- isoTOP-ABPP ratio Q9BRJ7_C88 ([3]; 200 μM, insitu, 231): 2.9

SMILES: O=C(CCl)NCCc1c[nH]c2ccccc12 [compound 13]
- isoTOP-ABPP ratio, cysteine O43175_C369 ([1]; ramos): 2.0
- isoTOP-ABPP ratio P07858_C211 ([6]; 200 μM, insitu, 231): 1.6
- isoTOP-ABPP ratio, cysteine Q13158_C98 [2]; 231: 1.6
- isoTOP-ABPP ratio Q9NP73_C86 ([4]; 200 μM, insitu, 231): 0.9
- isoTOP-ABPP ratio Q9NP73_C86 ([4]; 200 μM, insitu, ramos): 1.4
- isoTOP-ABPP ratio, cysteine Q9Y570_C381 ([5]; 200 μM, insitu, 231): 0.9

SMILES: COc1ccc(C2CC(c3cccs3)=NN2C(=O)CCl)cc1 (stereo not drawn) [compound 4]
- isoTOP-ABPP reactivity P07858_C211 CTSB ([6]; 100 μM in situ 231): 2.3
- isoTOP-ABPP reactivity P35754_C23 GLRX ([7]; 100 μM in situ 231): 20.0
- isoTOP-ABPP reactivity Q9BRJ7_C88 NUDT16L1 ([3]; 100 μM in situ 231): 20.0
- isoTOP-ABPP reactivity Q9NP73_C86 ALG13 ([4]; 100 μM in situ 231): 20.0
- isoTOP-ABPP reactivity Q9Y3D2_C105 MSRB2 ([8]; 100 μM in situ 231): 20.0
- isoTOP-ABPP reactivity Q9Y570_C381 PPME1 ([5]; 100 μM in situ 231): 1.1

Further lines, results first:

- isoTOP-ABPP ratio P07858_C211 ([6]; 200 μM, insitu, 231): 0.8
- isoTOP-ABPP ratio P35754_C23 ([7]; 200 μM, insitu, 231): 0.7
- isoTOP-ABPP ratio Q13158_C98 [2]; 231: 0.6
- isoTOP-ABPP ratio Q9NP73_C86 ([4]; 200 μM, insitu, 231): 0.4
- isoTOP-ABPP ratio Q9Y3D2_C105 ([8]; 200 μM, insitu, 231): 1.5
SMILES: CC(C)CCOCCNC(=O)CCl [compound 27]

- isoTOP-ABPP ratio P35754_C23 ([7]; 200 μM, insitu, 231): 20.0
- isoTOP-ABPP ratio, cysteine Q9Y3D2_C105 ([8]; 200 μM, insitu, 231): 20.0
SMILES: O=C(CCl)NC(=O)NC12CC3CC(CC(C3)C1)C2 [compound 12]

- isoTOP-ABPP ratio, cysteine O43175_C369 [1]; 231: 1.0
- isoTOP-ABPP ratio P07858_C211 ([6]; 200 μM, insitu, 231): 2.6
SMILES: O=C(CCl)NC12CC3CC(CC(C3)C1)C2 [compound 21]

- isoTOP-ABPP ratio, cysteine O43175_C369 ([1]; ramos): 2.4
- isoTOP-ABPP ratio P07858_C211 ([6]; 200 μM, insitu, 231): 7.4
- isoTOP-ABPP ratio P35754_C23 ([7]; 200 μM, insitu, ramos): 13.0
- isoTOP-ABPP ratio, cysteine Q9BRJ7_C88 ([3]; 200 μM, insitu, 231): 20.0
- isoTOP-ABPP ratio, cysteine Q9Y3D2_C105 ([8]; 200 μM, insitu, 231): 20.0
- isoTOP-ABPP ratio, cysteine Q9Y570_C381 ([5]; 200 μM, insitu, 231): 4.7
SMILES: O=C(CCl)N1CCN(S(=O)(=O)c2ccccc2F)CC1 [compound 10]

- isoTOP-ABPP ratio P07858_C211 ([6]; 100 μM in situ 231): 1.1
- isoTOP-ABPP ratio P35754_C23 ([7]; 100 μM in situ 231): 20.0
- isoTOP-ABPP ratio Q9NP73_C86 ([4]; 100 μM in situ 231): 0.7
- isoTOP-ABPP ratio, cysteine Q9Y3D2_C105 ([8]; 100 μM in situ 231): 1.3
SMILES: Cn1cc(S(=O)(=O)N2CCOCC2)cc1C(=O)NC(=O)CCl [compound 11]

- isoTOP-ABPP ratio P07858_C211 ([6]; 200 μM, insitu, 231): 2.4
- isoTOP-ABPP ratio P35754_C23 ([7]; 200 μM, insitu, 231): 16.3
- isoTOP-ABPP ratio Q9BRJ7_C88 ([3]; 200 μM, insitu, 231): 1.6
- isoTOP-ABPP ratio Q9NP73_C86 ([4]; 200 μM, insitu, 231): 20.0
- isoTOP-ABPP ratio Q9Y3D2_C105 ([8]; 200 μM, insitu, 231): 20.0
SMILES: CC1CCc2ccccc2N1C(=O)CCl (stereo not drawn) [compound 45]

- isoTOP-ABPP ratio Q9BRJ7_C88 ([3]; 200 μM, insitu, 231): 1.0
- isoTOP-ABPP ratio Q9NP73_C86 ([4]; 200 μM, insitu, 231): 1.3
SMILES: O=C(CCl)Nc1cccc2ncccc12 [compound 51]

- isoTOP-ABPP reactivity P07858_C211 CTSB ([6]; 200 μM, insitu, 231): 5.0
- isoTOP-ABPP reactivity Q9Y570_C381 PPME1 ([5]; 200 μM, insitu, 231): 20.0
SMILES: O=C(CCl)N1CCC(Cc2ccccc2)CC1 [compound 9]

- isoTOP-ABPP ratio O43175_C369 ([1]; ramos): 1.1
- isoTOP-ABPP ratio Q13158_C98 ([2]; ramos): 1.3
- isoTOP-ABPP ratio Q9NP73_C86 ([4]; 200 μM, insitu, ramos): 2.0
- isoTOP-ABPP ratio Q9Y570_C381 ([5]; 200 μM, insitu, ramos): 1.2
SMILES: O=C(CCl)N1CCN(CC(=O)N2CCOCC2)CC1 [compound 29]
